Results reported in the NIST ThermoML archive (doi:10.1016/j.jct.2017.10.016).
Numbers after ± are expanded uncertainties.

Experiment: xn = mol fraction of the nth substance listed
Settings: Liquid, Buoyancy - hydrostatic balance with magnetic suspension - one sinker

C=C(F)C(F)(F)F [2,3,3,3-tetrafluoro-1-propene] + CCC
mass density (255.05 K, x1 = 0.217): 705.65 ± 3.9 kg/m3
mass density (255.24 K, x1 = 0.322): 772.45 ± 3.9 kg/m3
mass density (257.01 K, x1 = 0.422): 831.62 ± 3.8 kg/m3
mass density (259.89 K, x1 = 0.322): 763.53 ± 3.8 kg/m3
mass density (259.9 K, x1 = 0.533): 897.69 ± 3.9 kg/m3
mass density (260.22 K, x1 = 0.217): 695.43 ± 3.9 kg/m3
mass density (260.27 K, x1 = 0.422): 825.19 ± 3.8 kg/m3
mass density (264.82 K, x1 = 0.322): 754.19 ± 3.8 kg/m3
mass density (264.85 K, x1 = 0.533): 887.37 ± 3.9 kg/m3
mass density (264.95 K, x1 = 0.217): 686.56 ± 3.9 kg/m3
mass density (265.38 K, x1 = 0.422): 815.01 ± 3.8 kg/m3
mass density (269.81 K, x1 = 0.533): 876.78 ± 3.8 kg/m3
mass density (269.89 K, x1 = 0.217): 677.65 ± 3.8 kg/m3
mass density (269.95 K, x1 = 0.322): 744.13 ± 3.8 kg/m3
mass density (270.15 K, x1 = 0.422): 805.93 ± 3.8 kg/m3
mass density (270.16 K, x1 = 0.113): 610.61 ± 3.9 kg/m3
mass density (274.77 K, x1 = 0.533): 865.74 ± 3.7 kg/m3
mass density (274.83 K, x1 = 0.217): 668.53 ± 3.8 kg/m3
mass density (274.96 K, x1 = 0.113): 602.76 ± 3.8 kg/m3
mass density (275.02 K, x1 = 0.625): 920.19 ± 3.6 kg/m3
mass density (275.16 K, x1 = 0.422): 794.82 ± 3.8 kg/m3
mass density (275.2 K, x1 = 0.322): 733.29 ± 3.7 kg/m3
mass density (279.91 K, x1 = 0.217): 658.85 ± 3.7 kg/m3
mass density (279.98 K, x1 = 0.422): 784.38 ± 3.7 kg/m3
mass density (280.01 K, x1 = 0.113): 594.34 ± 3.7 kg/m3
mass density (280.03 K, x1 = 0.322): 723.1 ± 3.7 kg/m3
mass density (280.14 K, x1 = 0.625): 907.78 ± 3.6 kg/m3
mass density (280.17 K, x1 = 0.533): 852.23 ± 3.7 kg/m3
mass density (284.9 K, x1 = 0.322): 712.55 ± 3.7 kg/m3
mass density (284.91 K, x1 = 0.217): 649.05 ± 3.6 kg/m3
mass density (284.93 K, x1 = 0.113): 585.81 ± 3.7 kg/m3
mass density (284.95 K, x1 = 0.533): 840.56 ± 3.6 kg/m3
mass density (284.97 K, x1 = 0.422): 774.16 ± 3.7 kg/m3
mass density (285.18 K, x1 = 0.625): 895.02 ± 3.6 kg/m3
mass density (289.94 K, x1 = 0.533): 828.05 ± 3.6 kg/m3
mass density (289.97 K, x1 = 0.422): 762.51 ± 3.6 kg/m3
mass density (290 K, x1 = 0.533): 827.87 ± 3.6 kg/m3
mass density (290.02 K, x1 = 0.113): 576.78 ± 3.6 kg/m3
mass density (290.02 K, x1 = 0.217): 638.62 ± 3.6 kg/m3
mass density (290.08 K, x1 = 0.322): 700.83 ± 3.6 kg/m3
mass density (290.11 K, x1 = 0.625): 882 ± 3.6 kg/m3
mass density (294.96 K, x1 = 0.322): 689.46 ± 3.6 kg/m3
mass density (294.96 K, x1 = 0.422): 750.87 ± 3.6 kg/m3
mass density (294.97 K, x1 = 0.533): 815.76 ± 3.5 kg/m3
mass density (295 K, x1 = 0.113): 567.56 ± 3.5 kg/m3
mass density (295.22 K, x1 = 0.625): 868.11 ± 3.5 kg/m3
mass density (299.04 K, x1 = 0.422): 742.17 ± 3.4 kg/m3
mass density (299.86 K, x1 = 0.113): 558.16 ± 3.5 kg/m3
mass density (299.91 K, x1 = 0.533): 803.63 ± 3.4 kg/m3
mass density (300.13 K, x1 = 0.625): 854.48 ± 3.4 kg/m3
